Measurements reported in PMC2682676 (Diabetes, 2009).

Experiments:
[1] = test system: subjects with type 2 diabetes; format: in vivo, human
[2] = test system: subjects with type 2 diabetes; experiment: Gastric emptying by appearance of acetaminophen in plasma during GIP infusion; format: in vivo, human; settings: 1 g acetaminophen with first bite; last 10 subjects
αTC1 cells = experiment: Glucagon secretion from αTC1 cells; format: cell-based; settings: αTC1 cells stimulated with GIP; secretion into the medium

## CC[C@H](C)[C@H](NC(=O)[C@H](CO)NC(=O)[C@H](Cc1ccc(O)cc1)NC(=O)[C@H](CC(=O)O)NC(=O)[C@H](CO)NC(=O)[C@@H](NC(=O)[C@H](Cc1ccccc1)NC(=O)[C@@H](NC(=O)CNC(=O)[C@H](CCC(=O)O)NC(=O)[C@H](C)NC(=O)[C@@H](N)Cc1ccc(O)cc1)[C@@H](C)O)[C@@H](C)CC)C(=O)N[C@@H](C)C(=O)N[C@@H](CCSC)C(=O)N[C@@H](CC(=O)O)C(=O)N[C@@H](CCCCN)C(=O)N[C@H](C(=O)N[C@@H](Cc1c[nH]cn1)C(=O)N[C@@H](CCC(N)=O)C(=O)N[C@@H](CCC(N)=O)C(=O)N[C@@H](CC(=O)O)C(=O)N[C@@H](Cc1ccccc1)C(=O)N[C@H](C(=O)N[C@@H](CC(N)=O)C(=O)N[C@@H](Cc1c[nH]c2ccccc12)C(=O)N[C@@H](CC(C)C)C(=O)N[C@@H](CC(C)C)C(=O)N[C@@H](C)C(=O)N[C@@H](CCC(N)=O)C(=O)N[C@@H](CCCCN)C(=O)NCC(=O)N[C@@H](CCCCN)C(=O)N[C@@H](CCCCN)C(=O)N[C@@H](CC(N)=O)C(=O)N[C@@H](CC(=O)O)C(=O)N[C@@H](Cc1c[nH]c2ccccc12)C(=O)N[C@@H](CCCCN)C(=O)N[C@@H](Cc1c[nH]cn1)C(=O)N[C@@H](CC(N)=O)C(=O)N[C@H](C(=O)N[C@H](C(=O)N[C@@H](CCC(N)=O)C(=O)O)[C@@H](C)O)[C@@H](C)CC)C(C)C)[C@@H](C)CC [GIP, Glucose-dependent insulinotropic polypeptide]
[1]; 20 ng/kg/min i.v., 0-60 min, positive AUC0-60 P < 0.01, n = 22
  plasma glucagon, early postprandial period vs placebo: statistically significant augmentation in glucagon secretion
[1]; 20 ng/kg/min i.v., t = 0-60 min, negative AUC0-60 P < 0.05, n = 22
  plasma glucose, early postprandial period vs placebo: early transient decrease in plasma glucose
[1]; 20 ng/kg/min i.v., t = 0-60 min, positive AUC0-60 P < 0.01, n = 22
  plasma insulin, early postprandial period vs placebo: statistically significant increase in plasma insulin
[1]; during 3 h of infusion, data not shown
  resistin levels vs placebo: no effect on resistin levels
[2]
  gastric emptying (plasma acetaminophen levels, AUCALL t = 0-180 min) vs placebo: did not affect gastric emptying
αTC1 cells
  glucagon secretion: glucagon secretion in a concentration-dependent manner
